Experimental data taken from patent US5556744A, “Methods and compositions for diagnosing and treating certain HIV infected patients” (The Trustees of the University of Pennsylvania, priority 1994, dated 1996).

Test system: maternal HIV+ sera (antibodies)
Test: RIA / ELISA binding of maternal HIV+ sera to gp120 and gp41 peptides (Example 3)
Design: species or system human
Method: Radioimmunoassay (RIA) and enzyme-linked immunosorbent assay (ELISA) were performed by standard methodologies [E. Engvall, Meth. Immunol., 70:419-439 (1980); S. K. Pierce et al, J. Exp. Med., 144:1254-1262 (1976)]. Peptides were dissolved in 0.05M carbonate-bicarbonate buffer (pH 9.6) at a concentration of 10 μg/ml. Fifty μl (500 ng) of the peptides were immobilized in 96 well polyvinylchloride plates (Dynatech Laboratories, Inc.) overnight at 4° C. Plates were washed and non-specific sites were blocked with PBS containing 1% BSA overnight at 4° C.
Dilutions of HIV positive maternal sera were made in blocking buffer at dilutions of 1:50 and 1:500 and incubated in peptide coated plates overnight at 4° C. Plates were washed with PBS and incubated with 75,000 cpm of ^125 I-labelled goat anti-human IgG. The antibody was iodinated by a chloramine T method [W. V. Williams et al, Proc. Natl. Acad. Sci. USA, 85:6488-6492 (1988)]. Plates were washed, dried and counted in a gamma counter to measure specific binding. Normal human serum (i.e., HIV seronegative) was used as a control.
Alternatively, ELISA assays were performed in polystyrene plates (Dynatech Laboratories, Inc) in which 0.05% Tween 20 (Sigma Chemical Co.) was included in the washing, blocking and dilution buffers. The secondary antibody used was goat […] Ig conjugated to horseradish peroxidase (HRP) (Sigma Chemical Co). The substrate used for color development was 3,3',5,5' tetramethyl-benzidine dihydrochloride (TMB) (Sigma Chemical Co). Absorbance of samples was measured in a Dynatech MR5000 (Dynatech Laboratories, Inc.) plate reader and expressed as an optical density at wavelength of 450 nm (OD450).
The following key is used for the designation of specific binding of the maternal sera samples to the peptides: The minus sign, -, is equivalent to the specific OD450 or cpm of sera sample binding to peptide divided by the specific OD450 or cpm of NHS sample binding to peptide, which value is less than 2. The plus sign, +, is equivalent to the specific OD450 or cpm of sera sample binding to peptide divided by the specific OD450 or cpm of NHS sample binding to peptide, which value is between 2 to 3.
Specific binding is defined as the difference between the OD450 or cpm of sera to wells with peptide and the OD450 or cpm of sera to wells without peptide.
Comparisons of number of peptides which bound maternal serum samples were made between the transmission group and the nontransmission group. The data was analyzed using the unpaired student's test. For the determination of differences in the binding of specific peptides between transmission and non-transmission groups, the Spearman's rank-order correlation test was performed.

[1] = Serum No. 1, Non-Transmission Group
[2] = Serum No. 2, Non-Transmission Group
[3] = Serum No. 3, Non-Transmission Group
[4] = Serum No. 4, Transmission Group
[5] = Serum No. 5, Transmission Group
[6] = Serum No. 6, Non-Transmission Group
[7] = Serum No. 7, Non-Transmission Group
[8] = Serum No. 8, Non-Transmission Group
[9] = Serum No. 9, Non-Transmission Group
[10] = Serum No. 10, Transmission Group
[11] = Serum No. 11, Non-Transmission Group
[12] = Serum No. 12, Non-Transmission Group
[13] = Serum No. 13, Transmission Group
[14] = Serum No. 14, Transmission Group
[15] = Serum No. 15, Transmission Group
[16] = Serum No. 16, Non-Transmission Group
[17] = Serum No. 17, Non-Transmission Group
[18] = Serum No. 18, Non-Transmission Group
[19] = Serum No. 19, Transmission Group
[20] = Serum No. 20, Non-Transmission Group

Row | Sequence | Binding of maternal HIV+ serum to peptide (sera/NHS ratio) [1] | Binding of maternal HIV+ serum to peptide (sera/NHS ratio) [2] | Binding of maternal HIV+ serum to peptide (sera/NHS ratio) [3] | Binding of maternal HIV+ serum to peptide (sera/NHS ratio) [4] | Binding of maternal HIV+ serum to peptide (sera/NHS ratio) [5] | Binding of maternal HIV+ serum to peptide (sera/NHS ratio) [6] | Binding of maternal HIV+ serum to peptide (sera/NHS ratio) [7] | Binding of maternal HIV+ serum to peptide (sera/NHS ratio) [8] | Binding of maternal HIV+ serum to peptide (sera/NHS ratio) [9] | Binding of maternal HIV+ serum to peptide (sera/NHS ratio) [10] | Binding of maternal HIV+ serum to peptide (sera/NHS ratio) [11] | Binding of maternal HIV+ serum to peptide (sera/NHS ratio) [12] | Binding of maternal HIV+ serum to peptide (sera/NHS ratio) [13] | Binding of maternal HIV+ serum to peptide (sera/NHS ratio) [14] | Binding of maternal HIV+ serum to peptide (sera/NHS ratio) [15] | Binding of maternal HIV+ serum to peptide (sera/NHS ratio) [16] | Binding of maternal HIV+ serum to peptide (sera/NHS ratio) [17] | Binding of maternal HIV+ serum to peptide (sera/NHS ratio) [18] | Binding of maternal HIV+ serum to peptide (sera/NHS ratio) [19] | Binding of maternal HIV+ serum to peptide (sera/NHS ratio) [20]
1 | ASWSNKSLEQIWNNM [Peptide 36] | - (specific OD450 or cpm of sera sample binding to peptide divided by the specific OD450 or cpm of NHS sample binding to peptide, which value is less than 2) | - (specific OD450 or cpm of sera sample binding to peptide divided by the specific OD450 or cpm of NHS sample binding to peptide, which value is less than 2) | - (specific OD450 or cpm of sera sample binding to peptide divided by the specific OD450 or cpm of NHS sample binding to peptide, which value is less than 2) | - (specific OD450 or cpm of sera sample binding to peptide divided by the specific OD450 or cpm of NHS sample binding to peptide, which value is less than 2) | - (specific OD450 or cpm of sera sample binding to peptide divided by the specific OD450 or cpm of NHS sample binding to peptide, which value is less than 2) | - (specific OD450 or cpm of sera sample binding to peptide divided by the specific OD450 or cpm of NHS sample binding to peptide, which value is less than 2) | - (specific OD450 or cpm of sera sample binding to peptide divided by the specific OD450 or cpm of NHS sample binding to peptide, which value is less than 2) | - (specific OD450 or cpm of sera sample binding to peptide divided by the specific OD450 or cpm of NHS sample binding to peptide, which value is less than 2) | - (specific OD450 or cpm of sera sample binding to peptide divided by the specific OD450 or cpm of NHS sample binding to peptide, which value is less than 2) | - (specific OD450 or cpm of sera sample binding to peptide divided by the specific OD450 or cpm of NHS sample binding to peptide, which value is less than 2) | - (specific OD450 or cpm of sera sample binding to peptide divided by the specific OD450 or cpm of NHS sample binding to peptide, which value is less than 2) | - (specific OD450 or cpm of sera sample binding to peptide divided by the specific OD450 or cpm of NHS sample binding to peptide, which value is less than 2) | - (specific OD450 or cpm of sera sample binding to peptide divided by the specific OD450 or cpm of NHS sample binding to peptide, which value is less than 2) | - (specific OD450 or cpm of sera sample binding to peptide divided by the specific OD450 or cpm of NHS sample binding to peptide, which value is less than 2) | - (specific OD450 or cpm of sera sample binding to peptide divided by the specific OD450 or cpm of NHS sample binding to peptide, which value is less than 2) | - (specific OD450 or cpm of sera sample binding to peptide divided by the specific OD450 or cpm of NHS sample binding to peptide, which value is less than 2) | - (specific OD450 or cpm of sera sample binding to peptide divided by the specific OD450 or cpm of NHS sample binding to peptide, which value is less than 2) | - (specific OD450 or cpm of sera sample binding to peptide divided by the specific OD450 or cpm of NHS sample binding to peptide, which value is less than 2) | - (specific OD450 or cpm of sera sample binding to peptide divided by the specific OD450 or cpm of NHS sample binding to peptide, which value is less than 2) | - (specific OD450 or cpm of sera sample binding to peptide divided by the specific OD450 or cpm of NHS sample binding to peptide, which value is less than 2)
2 | VTRIVELLGRRGWEALKYWW [Peptide 57] | - (specific OD450 or cpm of sera sample binding to peptide divided by the specific OD450 or cpm of NHS sample binding to peptide, which value is less than 2) | - (specific OD450 or cpm of sera sample binding to peptide divided by the specific OD450 or cpm of NHS sample binding to peptide, which value is less than 2) | - (specific OD450 or cpm of sera sample binding to peptide divided by the specific OD450 or cpm of NHS sample binding to peptide, which value is less than 2) | - (specific OD450 or cpm of sera sample binding to peptide divided by the specific OD450 or cpm of NHS sample binding to peptide, which value is less than 2) | - (specific OD450 or cpm of sera sample binding to peptide divided by the specific OD450 or cpm of NHS sample binding to peptide, which value is less than 2) | - (specific OD450 or cpm of sera sample binding to peptide divided by the specific OD450 or cpm of NHS sample binding to peptide, which value is less than 2) | - (specific OD450 or cpm of sera sample binding to peptide divided by the specific OD450 or cpm of NHS sample binding to peptide, which value is less than 2) | ++ (which value is greater than 3) | - (specific OD450 or cpm of sera sample binding to peptide divided by the specific OD450 or cpm of NHS sample binding to peptide, which value is less than 2) | - (specific OD450 or cpm of sera sample binding to peptide divided by the specific OD450 or cpm of NHS sample binding to peptide, which value is less than 2) | - (specific OD450 or cpm of sera sample binding to peptide divided by the specific OD450 or cpm of NHS sample binding to peptide, which value is less than 2) | - (specific OD450 or cpm of sera sample binding to peptide divided by the specific OD450 or cpm of NHS sample binding to peptide, which value is less than 2) | - (specific OD450 or cpm of sera sample binding to peptide divided by the specific OD450 or cpm of NHS sample binding to peptide, which value is less than 2) | - (specific OD450 or cpm of sera sample binding to peptide divided by the specific OD450 or cpm of NHS sample binding to peptide, which value is less than 2) | - (specific OD450 or cpm of sera sample binding to peptide divided by the specific OD450 or cpm of NHS sample binding to peptide, which value is less than 2) | - (specific OD450 or cpm of sera sample binding to peptide divided by the specific OD450 or cpm of NHS sample binding to peptide, which value is less than 2) | - (specific OD450 or cpm of sera sample binding to peptide divided by the specific OD450 or cpm of NHS sample binding to peptide, which value is less than 2) | - (specific OD450 or cpm of sera sample binding to peptide divided by the specific OD450 or cpm of NHS sample binding to peptide, which value is less than 2) | - (specific OD450 or cpm of sera sample binding to peptide divided by the specific OD450 or cpm of NHS sample binding to peptide, which value is less than 2) | + (which value is between 2 to 3)
